The results in this text go back to patent US8940728B2 (priority 2012, dated 2015).

pIC50: −log10 of the molar value. Like-named read-outs stand apart in the source and are kept apart here.

Data set [1] has as its target T1, a3b4 nAChRs (Homo sapiens, UniProt P30926+P32297). As to the kind of experiment: FLIPR Ca+2 flux assay, epibatidine-induced calcium response, SH-SYSY cells. It counts as cell-based. As for the experimental part: (§1) The HEK293 (a3b4, a4b2 and a7) and SH-SYSY cell lines (a3b4) expressing nAChRs are used. Validated assays optimized with respect to sensitivity, dynamic range, signal intensity and stability for chemical probe validation and SAR refinement are used.
(§2) Nicotinic functional assays are performed using the Molecular Devices FLIPR® Calcium 5 Assay Kit. HEK293 cells overexpressing α3β4, α4β2 or α7 (50,000 cells per well in 100 μl growth media) and are plated in clear bottom black walled 96-well microplates and incubated for 24-48 hours at 37° C., 5% CO2 until a 80-90% confluent monolayer is formed. On the day of the assay, 100 μl of Calcium 5 Dye is added to each well. Following addition of dye, cells are incubated at 25° C. for 60 minutes. Following dye loading, 50 μl of a 5× solution of reference or test compound of appropriate concentration range (0.01-30 μM), prepared in 20 mM HEPES pH 7.4 in HBSS, is added to each well. Plates are then transferred to the Molecular Devices Flexstation® which transfers 50 μL of a 5× solution (500 nM) of epibatine to each well to initiate the Ca+2 flux. […] The RFU (relative fluorescence units) in the presence of the test or reference compounds is then expressed on the percent scale. The percent inhibition of epibatidine induced Ca^+2 flux is calculated as follows: % inhibition=100%−% RFU (relative fluorescence units). […]

Data set [2] has as its target T1, a3b4 nAChRs. As to the kind of experiment: FLIPR Ca+2 flux assay, epibatidine-induced calcium response, A3B4-HEK cells. The class given is cell-based. As for the experimental part:
as §1, §2

In data set [3] the target is T2, α3β4 nicotinic receptor subtype (Homo sapiens, UniProt P30926+P32297).
T2 construct: SH-SYSY cells predominantly express the α3β4 nicotinic receptor subtype; endogenous in cells; host or cells: SH-SYSY (SH-SY5Y) cells
T2 sequence (P32297 32-505): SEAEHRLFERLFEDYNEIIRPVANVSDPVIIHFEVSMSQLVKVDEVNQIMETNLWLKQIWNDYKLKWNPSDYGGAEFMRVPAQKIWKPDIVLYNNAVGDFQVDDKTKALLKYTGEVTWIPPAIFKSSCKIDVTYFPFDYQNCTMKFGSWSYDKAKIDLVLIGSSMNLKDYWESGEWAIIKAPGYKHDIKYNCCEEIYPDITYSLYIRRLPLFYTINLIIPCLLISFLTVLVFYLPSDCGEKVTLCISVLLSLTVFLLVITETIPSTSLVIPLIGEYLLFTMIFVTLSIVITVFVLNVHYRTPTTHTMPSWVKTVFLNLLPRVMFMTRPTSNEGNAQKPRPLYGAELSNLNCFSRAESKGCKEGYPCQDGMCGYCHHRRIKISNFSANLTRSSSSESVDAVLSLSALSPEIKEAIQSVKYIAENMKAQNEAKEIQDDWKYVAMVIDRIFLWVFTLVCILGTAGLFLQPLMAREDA
T2 sequence (P30926 22-498): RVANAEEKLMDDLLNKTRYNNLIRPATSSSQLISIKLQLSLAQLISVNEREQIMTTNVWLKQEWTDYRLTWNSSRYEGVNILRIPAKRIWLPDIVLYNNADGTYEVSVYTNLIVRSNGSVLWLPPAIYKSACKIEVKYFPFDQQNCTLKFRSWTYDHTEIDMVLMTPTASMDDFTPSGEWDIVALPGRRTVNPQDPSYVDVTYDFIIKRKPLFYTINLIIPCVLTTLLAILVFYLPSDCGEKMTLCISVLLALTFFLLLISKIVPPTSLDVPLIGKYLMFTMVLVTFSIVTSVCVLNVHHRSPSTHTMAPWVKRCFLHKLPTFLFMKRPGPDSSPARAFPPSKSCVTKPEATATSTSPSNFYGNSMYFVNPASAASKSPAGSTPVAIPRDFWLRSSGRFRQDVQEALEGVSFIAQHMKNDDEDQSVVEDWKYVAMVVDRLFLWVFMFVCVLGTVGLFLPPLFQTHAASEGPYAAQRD
As to the kind of experiment: cell-based. To be noted: for IC50: Caliper; for pIC50: SH-SYSY cells, preliminary studies by Caliper Life Sciences.
Source text: as §1

Data set [4] addresses T3, kappa opioid receptor (kOR) (Homo sapiens, UniProt P41145).
T3 construct: expressed in transfected cells; host or cells: CHO or HEK293
The data set is described as follows: Kappa opioid receptor radioligand binding. As for the experimental part:
(§3) Established radioligand binding methods are used to evaluate the ability of the compounds to block reuptake of serotonin and dopamine in membrane preparations of synaptosomes. Equilibrium binding affinity values is determined for each compound at opioid receptors (μ and κ subtypes) and biogenic amine transporters (DAT and SERT). Where possible, binding experiments utilize membranes derived from CHO or HEK293 cells engineered to overexpress the human form of the receptor or transporter of interest. Radiolabeling of opioid receptors, and biogenic amine transporters utilizes conventional radioligands, buffers and incubation conditions according to published assays.
(§4) Test compounds, reference compounds and the radioligand (Kd value) are added to binding buffer. Assays are run with test or reference compound over a range of concentration (0.0001-10 uM) in triplicate using a 96-well sample plate containing radioligands specific for the target receptor or transporter. […] Bound radioactivity is counted in a Microbeta scintillation counter. Total bound radioactivity is estimated from triplicate wells containing no test or reference compound, together with nonspecific binding and filter blanks. The average bound radioactivity in the presence of the test compounds is expressed % inhibition=100%−% radioactivity bound. […]

A further data set addresses T4, mu opioid receptor (mOR) (Homo sapiens, UniProt P35372).
T4 construct: expressed in transfected cells; host or cells: CHO or HEK293
As to the kind of experiment: Mu opioid receptor radioligand binding. The procedure: as §3, §4

A further data set addresses 5-HT transporter (Homo sapiens, UniProt P31645). As to the kind of experiment: 5-HT transporter radioligand binding. As for the experimental part: as §3, §4
Data set [5] is described as follows: Binding panel of over 50 receptors, transporters, ion channels, second messengers, growth factor receptors and enzymes. As to conditions: at physiologically relevant concentrations. The source says: The association between cigarette smoking and the presence and severity of suicidal behavior across major psychiatric disorders may be related to lower brain serotonin function in smokers with depression).

Data set [6] is described as follows: CNS penetration across the brain blood barrier. As to conditions: in vivo. As for the experimental part: Mice are dosed with compounds. Brain to blood ratios are determined by HPLC and LC/MS/MS analysis following oral administration of the test compounds in mice.
Data set [7] has as its target T1, a3b4 nAChRs. As to the kind of experiment: Relative potency on epibatidine-induced calcium response at a3b4 nAChRs. The class given is cell-based. As for the experimental part:
as §1
Nicotinic functional assays are performed using the Molecular Devices FLIPR® Calcium 5 Assay Kit. HEK293 cells overexpressing α3β4, α4β2 or α7 (50,000 cells per well in 100 μl growth media) and are plated in clear bottom black walled 96-well microplates and incubated for 24-48 hours at 37° C., 5% CO2 until a 80-90% confluent monolayer is formed. On the day of the assay, 100 μl of Calcium 5 Dye is added to each well. Following addition of dye, cells are incubated at 25° C. for 60 minutes. Following dye loading, 50 μl of a 5× solution of reference or test compound of appropriate concentration range (0.01-30 μM), prepared in 20 mM HEPES pH 7.4 in HBSS, is added to each well. Plates are then transferred to the Molecular Devices Flexstation® which transfers 50 μL of a 5× solution (500 nM) of epibatine to each well to initiate the Ca+2 flux. Additional wells (in quadruplicate) are prepared with no added test or reference ligand for measurement of 100% flux. The RFU (relative fluorescence units) in the presence of the test or reference compounds is then expressed on the percent scale. The percent inhibition of epibatidine induced Ca^+2 flux is calculated as follows: % inhibition=100%−% RFU (relative fluorescence units). The IC50 values for reference and test compounds are obtained by fitting normalized RFU data using Graphpad Prism software.

T1 sequence (P30926 22-498): as above
T1 sequence (P32297 32-505): as the sequence (P32297 32-505) above
Chain of 5-HT transporter (P31645 whole entry): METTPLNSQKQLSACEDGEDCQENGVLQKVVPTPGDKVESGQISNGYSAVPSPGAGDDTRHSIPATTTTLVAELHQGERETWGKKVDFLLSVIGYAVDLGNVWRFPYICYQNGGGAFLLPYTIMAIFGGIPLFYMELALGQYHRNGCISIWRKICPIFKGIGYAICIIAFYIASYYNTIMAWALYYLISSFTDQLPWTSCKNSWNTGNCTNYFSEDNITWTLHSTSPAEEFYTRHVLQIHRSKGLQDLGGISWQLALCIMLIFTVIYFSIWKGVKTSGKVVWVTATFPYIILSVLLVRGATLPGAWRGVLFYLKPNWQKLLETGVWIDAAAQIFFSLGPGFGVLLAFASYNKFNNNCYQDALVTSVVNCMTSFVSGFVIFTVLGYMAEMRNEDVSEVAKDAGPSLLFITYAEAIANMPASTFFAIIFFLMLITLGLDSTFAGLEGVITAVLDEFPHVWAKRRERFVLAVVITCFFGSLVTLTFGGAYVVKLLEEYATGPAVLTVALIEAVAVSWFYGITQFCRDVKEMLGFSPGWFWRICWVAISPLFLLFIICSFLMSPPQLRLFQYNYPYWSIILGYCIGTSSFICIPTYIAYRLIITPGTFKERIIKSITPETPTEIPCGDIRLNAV
T4 sequence (P35372 whole entry): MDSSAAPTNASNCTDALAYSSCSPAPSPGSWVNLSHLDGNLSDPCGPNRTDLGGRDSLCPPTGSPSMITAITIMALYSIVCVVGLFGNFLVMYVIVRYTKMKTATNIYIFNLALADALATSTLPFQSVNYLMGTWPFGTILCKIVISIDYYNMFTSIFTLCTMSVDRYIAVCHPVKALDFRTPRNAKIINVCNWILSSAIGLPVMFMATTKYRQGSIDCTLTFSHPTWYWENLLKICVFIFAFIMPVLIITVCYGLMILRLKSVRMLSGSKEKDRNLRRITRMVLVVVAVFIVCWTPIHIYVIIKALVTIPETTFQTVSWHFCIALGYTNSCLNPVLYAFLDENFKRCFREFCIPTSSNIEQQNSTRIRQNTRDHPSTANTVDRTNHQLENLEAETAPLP
T3 sequence (P41145 whole entry): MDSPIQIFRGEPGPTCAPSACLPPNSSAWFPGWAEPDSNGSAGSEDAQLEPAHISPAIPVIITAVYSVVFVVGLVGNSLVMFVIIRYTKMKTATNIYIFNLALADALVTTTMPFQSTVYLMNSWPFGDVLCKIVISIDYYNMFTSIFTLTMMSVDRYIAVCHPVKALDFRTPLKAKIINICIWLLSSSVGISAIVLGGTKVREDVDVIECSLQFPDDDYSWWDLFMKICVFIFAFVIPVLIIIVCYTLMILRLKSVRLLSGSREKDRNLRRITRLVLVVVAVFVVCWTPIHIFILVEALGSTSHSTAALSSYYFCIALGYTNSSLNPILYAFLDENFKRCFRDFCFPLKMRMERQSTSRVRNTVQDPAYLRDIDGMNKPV

As for `CC[C@H]1CC2C[C@H]3c4[nH]c5ccc(O)cc5c4CCN(C2)C13` [Noribogaine, 12-hydroxyibogamine], the pIC50 was 6.52 at a3b4 nAChRs [1], 4.74 on a3b4 nAChRs [2] and 6.34 in [3] (IC50 as antagonist for epibatine induced Ca+2 flux). In data set [3] (IC50 (uM) Caliper, inhibition of epibatidine-induced calcium response), the IC50 was 1 µM. Moreover, in [4], the “Affinity at kappa opioid receptors” value amounted to 1 µM. For the same molecule, the “Affinity at mu opioid receptors” value at mu opioid receptor (mOR) turned out to be 900 nM. Moreover, the “Affinity to the 5-HT transporter” value on 5-HT transporter was found to be 50 nM. Besides, the “Targets bound in the panel” value in data set [5] is “only bound to SERT, DAT, mu and kappa opioid receptors”. For the same molecule, the “Crossing of the BBB and concentration in brain” value in data set [6] was “cross the BBB and reach micromolar concentrations in brain”.

`COCC[C@H]1CC2CN3CCc4c([nH]c5ccccc45)[C@](C(=O)OC)(C2)[C@H]13` [Compound 18-MC, 18-methoxycoronaridine]: the IC50 at a3b4 nAChRs [1] (SH-SYSY cells, read-out: IC50 (uM) SH-SYSY, inhibition of epibatidine-induced calcium response) stood at 3.9 µM; in data set [3] (read-out: IC50 (uM) Caliper, inhibition of epibatidine-induced calcium response), 3.9 µM. The pIC50 in data set [3] (read-out: IC50 as antagonist for epibatine induced Ca+2 flux) was 5.41; on a3b4 nAChRs [7] (reference value for the ratios of Table 4, read-out: Potency of 18-MC at a3b4 nAChRs taken as reference) it was 5.40. In addition, on a3b4 nAChRs [7] (relative to 18-MC = 1 (4 uM)), the “Ratio from 18-MC (relative potency at a3b4 nAChRs)” value came out at 1. Moreover, in data set [6], the “Crossing of the BBB and concentration in brain” value was “cross the BBB and reach micromolar concentrations in brain”.

With Ibogaine, the “Potency as inhibitor of epibatidine-induced calcium response compared with 18-MC and noribogaine” value on a3b4 nAChRs [7] (in words) is recorded as “more potent inhibitors than 18-MC”.

For orientation: IC50 means the point on the concentration scale where inhibition reaches its midpoint.
